Drawing on US9988400B2 (Genentech, Inc., priority 2013, dated 2018), this text covers EC50 and Max % for 23 compounds.

This assay addresses T1, HEK cells stably transfected with tetracycline inducible hNR1 and hNR2A (Homo sapiens, UniProt Q05586+Q12879).
T1 construct: expressed in transfected cells; host or cells: HEK cells, stably transfected, tetracycline/doxycycline inducible
The assay is described as follows: Assay 1: Cell-Based Assay, cytosolic calcium response to positive allosteric modulators (with 30 μM glycine and 300 nM L-glutamate, EC30). The settings on record: Table 2; for EC50: cytosolic calcium response, with 30 μM glycine and 300 nM L-glutamate (EC30), — = no plateau was reached; for Max %: responses scaled relative to 100 μM L-glutamate maximal response (100%) and 0 μM L-glutamate (0%). Put shortly: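 Cells induced 24 h with 7.5 μg mL^−1 doxycycline plus 500 μM (+)-ketamine, loaded 60 min at 37 °C with calcium dye in Mg-free HBSS (1.8 mM Ca, probenecid, 10 μM (+)-ketamine, pH 7.15). Peak RFU over 5 min after compound addition, scaled to 100 μM L-glutamate (100%) and 0 μM (0%); four-parameter Hill fit for EC50, max % if no plateau.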

The term EC50 denotes the midpoint of the concentration-response curve.

T1 sequence (Q12879 23-1464, other chains not shown): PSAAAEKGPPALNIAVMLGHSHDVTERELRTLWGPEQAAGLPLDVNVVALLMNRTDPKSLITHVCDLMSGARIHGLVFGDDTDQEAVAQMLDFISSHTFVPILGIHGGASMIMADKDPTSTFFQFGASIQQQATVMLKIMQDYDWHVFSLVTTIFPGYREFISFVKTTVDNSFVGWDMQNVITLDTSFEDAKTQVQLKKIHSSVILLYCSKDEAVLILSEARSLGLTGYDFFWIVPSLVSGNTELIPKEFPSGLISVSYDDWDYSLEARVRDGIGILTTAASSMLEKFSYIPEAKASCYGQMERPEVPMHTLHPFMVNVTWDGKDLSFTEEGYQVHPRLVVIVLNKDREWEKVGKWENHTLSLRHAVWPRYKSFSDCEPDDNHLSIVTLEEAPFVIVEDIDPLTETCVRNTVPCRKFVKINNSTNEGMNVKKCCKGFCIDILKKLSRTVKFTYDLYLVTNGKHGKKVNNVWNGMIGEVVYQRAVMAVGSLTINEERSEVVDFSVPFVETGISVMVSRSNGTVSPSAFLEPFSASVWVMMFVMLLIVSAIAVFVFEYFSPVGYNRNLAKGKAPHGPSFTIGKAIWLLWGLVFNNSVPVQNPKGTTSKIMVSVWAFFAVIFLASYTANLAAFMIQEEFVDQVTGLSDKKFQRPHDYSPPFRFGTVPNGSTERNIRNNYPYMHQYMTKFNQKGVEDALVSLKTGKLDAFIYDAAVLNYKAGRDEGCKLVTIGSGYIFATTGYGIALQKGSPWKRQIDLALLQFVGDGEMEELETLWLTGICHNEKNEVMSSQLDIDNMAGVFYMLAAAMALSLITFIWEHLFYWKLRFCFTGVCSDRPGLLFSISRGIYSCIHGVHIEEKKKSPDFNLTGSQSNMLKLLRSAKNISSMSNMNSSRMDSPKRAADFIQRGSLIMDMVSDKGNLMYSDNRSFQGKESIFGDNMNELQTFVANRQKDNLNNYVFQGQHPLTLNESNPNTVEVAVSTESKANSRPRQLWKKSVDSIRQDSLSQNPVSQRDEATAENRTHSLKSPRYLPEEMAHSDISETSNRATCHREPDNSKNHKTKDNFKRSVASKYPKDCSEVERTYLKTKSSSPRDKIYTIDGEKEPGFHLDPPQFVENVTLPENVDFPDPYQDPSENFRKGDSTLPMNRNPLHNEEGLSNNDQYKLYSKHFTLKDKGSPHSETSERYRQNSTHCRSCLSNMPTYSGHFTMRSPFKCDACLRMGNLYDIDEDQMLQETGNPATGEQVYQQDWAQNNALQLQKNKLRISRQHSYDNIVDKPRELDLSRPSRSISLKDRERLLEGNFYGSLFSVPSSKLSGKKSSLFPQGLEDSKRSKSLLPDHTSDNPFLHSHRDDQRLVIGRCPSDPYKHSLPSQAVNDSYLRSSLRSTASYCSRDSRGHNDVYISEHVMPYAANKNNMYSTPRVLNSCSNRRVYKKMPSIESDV

`CCN(Cc1cc(=O)n2c(-c3cncc(F)c3)c(C)sc2n1)c1ccc(F)cc1` [Example 5.24, 7-[(N-ethyl-4-fluoro-anilino)methyl]-3-(5-fluoro-3-pyridyl)-2-methyl-thiazolo[3,2-a]pyrimidin-5-one]: the EC50 was 0.731 µM and the Max % was determined as 142%.

As for `CCN(Cc1cc(=O)n2c(-c3cccnc3F)c(C)sc2n1)c1ccc(F)cc1` [Example 5.25, 7-[(N-ethyl-4-fluoro-anilino)methyl]-3-(2-fluoro-3-pyridyl)-2-methyl-thiazolo[3,2-a]pyrimidin-5-one], the EC50 stood at 0.7 µM and the Max % turned out to be 141%.

With `CCN(Cc1cc(=O)n2c(C3CC3)c(C)sc2n1)c1ccc(F)cc1` [Example 5.26, 3-cyclopropyl-7-[(N-ethyl-fluoro-anilino)methyl]-2-methyl-thiazolo[3,2-a]pyrimidin-5-one], the EC50 stood at 0.563 µM and the Max % is recorded as 149%.

Turning to `CCN(Cc1cc(=O)n2c(-c3cnccn3)c(C)sc2n1)c1ccc(F)cc1` [Example 5.27, 7-[(N-ethyl-4-fluoro-anilino)methyl]-2-methyl-3-pyrazin-2-yl-thiazolo[3,2-a]pyrimidin-5-one], the EC50 came to 1.1 µM and the Max % is given as 139%.

In the case of `C=C(C)c1c(C)sc2nc(CN(CC)c3ccc(F)cc3)cc(=O)n12` [Example 5.29, 7-[(N-ethyl-4-fluoro-anilino)methyl]-3-isopropenyl-2-methyl-thiazolo[3,2-a]pyrimidin-5-one], the EC50 was 0.445 µM and the Max % was determined as 147%.

With `CCN(Cc1cc(=O)n2c(-c3ccnnc3)c(C)sc2n1)c1ccc(F)cc1` [Example 5.30, 7-[(N-ethyl-4-fluoro-anilino)methyl]-2-methyl-3-pyridazin-4-yl-thiazolo[3,2-a]pyrimidin-5-one], the EC50 stood at 4.3 µM and the Max % is reported as 132%.

As to `CCN(Cc1cc(=O)n2c(-c3cncc(Cl)c3)c(C)sc2n1)c1ccc(F)cc1` [Example 5.31, 3-(5-chloro-3-pyridyl)-7-[(N-ethyl-4-fluoro-anilino)methyl]-2-methyl-thiazolo[3,2-a]pyrimidin-5-one], the EC50 was found to be 2.7 µM and the Max % is 132%.

For `CCN(Cc1cc(=O)n2c(-c3ccncc3)c(C)sc2n1)c1ccc(F)cc1` [Example 5.32, 7-[(N-ethyl-4-fluoro-anilino)methyl]-2-methyl-3-(4-pyridyl)thiazolo[3,2-a]pyrimidin-5-one], the EC50 amounted to 4.3 µM and the Max % is recorded as 123%.

In the case of `CCN(Cc1cc(=O)n2c(-c3cnn(C)c3)c(C)sc2n1)c1ccc(F)cc1` [Example 5.33, 7-[(N-ethyl-4-fluoro-anilino)methyl]-2-methyl-3-(1-methylpyrazol-4-yl)thiazolo[3,2-a]pyrimidin-5-one], the half-maximal effective concentration (EC50) came out at 4.2 µM and the Max % was 120%.

`CCN(Cc1cc(=O)n2c(-c3cn[nH]c3)c(C)sc2n1)c1ccc(F)cc1` [Example 5.34, 7-[(N-ethyl-4-fluoro-anilino)methyl]-2-methyl-3-(1H-pyrazol-4-yl)thiazolo[3,2-a]pyrimidin-5-one]: the 50% effective concentration (EC50) is 2.8 µM and the Max % was determined as 118%.

Consider `CCN(Cc1cc(=O)n2c(-c3cncc(C#N)c3)c(C)sc2n1)c1ccc(F)cc1` [Example 5.35, 5-[7-[(N-ethyl-4-fluoro-anilino)methyl]-2-methyl-5-oxo-thiazolo[3,2-a]pyrimidin-3-yl]pyridine-3-carbonitrile], for which the half-maximal effective concentration (EC50) was found to be 2.7 µM and the Max % was found to be 136%.

As to `CCN(Cc1cc(=O)n2c(-c3cncc(C(F)(F)F)c3)c(C)sc2n1)c1ccc(F)cc1` [Example 5.36, 7-[(N-ethyl-4-fluoro-anilino)methyl]-2-methyl-3-[5-(trifluoromethyl)-3-pyridyl]thiazolo[3,2-a]pyrimidin-5-one], the Max % came out at 61.3%.

In the case of `CCN(Cc1cc(=O)n2c(-c3ncco3)c(C)sc2n1)c1ccc(F)cc1` [Example 5.37, 7-[(N-ethyl-4-fluoro-anilino)methyl]-2-methyl-3-oxazol-2-yl-thiazolo[3,2-a]pyrimidin-5-one], the concentration for a half-maximal effect (EC50) is 0.515 µM and the Max % is 152%.

`CCN(Cc1cc(=O)n2c(C(F)(F)F)c(C)sc2n1)c1ccc(F)cc1` [Example 5.38, 7-((ethyl(4-fluorophenyl)amino)methyl)-2-methyl-3-(trifluoromethyl)-5H-thiazolo[3,2-a]pyrimidin-5-one]: the EC50 turned out to be 1.1 µM and the Max % is listed as 147%.

Regarding `CCc1c(C)sc2nc(CN(CC)c3ccc(F)cc3)cc(=O)n12` [Example 5.40, 3-ethyl-7-((ethyl(4-fluorophenyl)amino)methyl)-2-methyl-5H-thiazolo[3,2-a]pyrimidin-5-one], the concentration for a half-maximal effect (EC50) amounted to 1.9 µM and the Max % amounted to 149%.

In the case of `CCCc1c(C)sc2nc(CN(CC)c3ccc(F)cc3)cc(=O)n12` [Example 5.41, 7-((ethyl(4-fluorophenyl)amino)methyl)-2-methyl-3-propyl-5H-thiazolo[3,2-a]pyrimidin-5-one], the EC50 was found to be 2 µM and the Max % came out at 125%.

For `CCN(Cc1cc(=O)n2c(-c3ccoc3)c(C)sc2n1)c1ccc(F)cc1` [Example 5.44, 7-((ethyl(4-fluorophenyl)amino)methyl)-3-(furan-3-yl)-2-methyl-5H-thiazolo[3,2-a]pyrimidin-5-one], the EC50 is 1.1 µM and the Max % turned out to be 158%.

Take `CCN(Cc1cc(=O)n2c(-c3ccco3)c(C)sc2n1)c1ccc(F)cc1` [Example 5.45, 7-((ethyl(4-fluorophenyl)amino)methyl)-3-(furan-2-yl)-2-methyl-5H-thiazolo[3,2-a]pyrimidin-5-one]: the EC50 stood at 0.214 µM and the Max % turned out to be 139%.

Regarding `Cc1sc2nc(CN3c4ccc(F)cc4CC3C)cc(=O)n2c1-c1ccco1` (centres unmarked) [Example 5.46, 7-((5-fluoro-2-methylindolin-1-yl)methyl)-3-(furan-2-yl)-2-methyl-5H-thiazolo[3,2-a]pyrimidin-5-one], the EC50 amounted to 3.8 µM and the Max % was determined as 155%.

For the compound `CCN(Cc1cc(=O)n2c(-c3ccsc3)c(C)sc2n1)c1ccc(F)cc1` [Example 5.47, 7-((ethyl(4-fluorophenyl)amino)methyl)-2-methyl-3-(thiophen-3-yl)-5H-thiazolo[3,2-a]pyrimidin-5-one], the EC50 was determined as 0.976 µM and the Max % is listed as 151%.

Consider `Cc1sc2nc(CN3c4ccc(F)cc4CC3C)cc(=O)n2c1-c1cncnc1` (centres unmarked) [Example 5.48, 7-((5-fluoro-2-methylindolin-1-yl)methyl)-2-methyl-3-(pyrimidin-5-yl)-5H-thiazolo[3,2-a]pyrimidin-5-one], for which the EC50 was 6.2 µM and the Max % is 136%.

For `CCN(Cc1cc(=O)n2c(-c3nc(C)cs3)c(C)sc2n1)c1ccc(F)cc1` [Example 5.49, 7-((ethyl(4-fluorophenyl)amino)methyl)-2-methyl-3-(4-methylthiazol-2-yl)-5H-thiazolo[3,2-a]pyrimidin-5-one], the EC50 was 12.9 µM and the Max % was 127%.

With `CCN(Cc1cc(=O)n2c(-c3ccc(=O)[nH]c3)c(C)sc2n1)c1ccc(F)cc1` [Example 5.50, 7-((ethyl(4-fluorophenyl)amino)methyl)-2-methyl-3-(6-oxo-1,6-dihydropyridin-3-yl)-5H-thiazolo[3,2-a]pyrimidin-5-one], the Max % is 96.8%.
